In patent US10166216B2 (Rigel Pharmaceuticals, Inc., priority 2006, dated 2019) one finds IC50 data, which are given here for 29 molecules.

Structures are written as SMILES. Some results are limits rather than exact numbers.

Sequence of Axl (P30530 26-894): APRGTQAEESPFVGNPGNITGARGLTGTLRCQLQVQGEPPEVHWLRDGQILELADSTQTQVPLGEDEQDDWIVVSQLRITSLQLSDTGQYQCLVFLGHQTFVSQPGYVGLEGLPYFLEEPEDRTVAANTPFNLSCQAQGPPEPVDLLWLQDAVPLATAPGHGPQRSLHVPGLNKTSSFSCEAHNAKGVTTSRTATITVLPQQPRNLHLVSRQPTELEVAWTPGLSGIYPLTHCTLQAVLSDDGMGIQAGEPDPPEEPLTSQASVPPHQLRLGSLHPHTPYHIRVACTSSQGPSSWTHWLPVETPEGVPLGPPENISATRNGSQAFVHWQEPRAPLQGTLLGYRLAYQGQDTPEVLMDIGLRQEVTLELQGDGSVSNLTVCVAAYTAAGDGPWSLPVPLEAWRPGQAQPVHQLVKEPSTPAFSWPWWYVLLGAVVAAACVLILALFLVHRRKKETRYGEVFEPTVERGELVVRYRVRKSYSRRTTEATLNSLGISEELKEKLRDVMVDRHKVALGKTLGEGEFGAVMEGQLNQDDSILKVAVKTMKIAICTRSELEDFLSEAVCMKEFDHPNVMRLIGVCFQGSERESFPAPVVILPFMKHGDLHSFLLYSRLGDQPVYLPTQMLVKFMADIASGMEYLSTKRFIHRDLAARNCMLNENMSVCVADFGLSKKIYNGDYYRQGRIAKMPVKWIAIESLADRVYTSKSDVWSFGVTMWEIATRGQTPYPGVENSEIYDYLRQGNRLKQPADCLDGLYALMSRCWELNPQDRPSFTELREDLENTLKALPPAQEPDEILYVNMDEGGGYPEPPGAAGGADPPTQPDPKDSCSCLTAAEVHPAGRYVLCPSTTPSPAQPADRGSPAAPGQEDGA

The target in the first assay is Axl (Homo sapiens (Human), UniProt P30530). The assay can be described thus: Phospho-Akt in-cell Western assay (Axl-antibody cross-linking stimulation). In kind it is cell-based. The conditions noted are these: inhibition of Axl activity, Hela cells, phospho-Akt readout; Table 1, formula (Ia1). The procedure:
The working solution: dilute the stock 1:20 with PBS immediately before use. • 10% SDS: working solution: 5% SDS (sodium dodecylsulfate), diluted in PBS Methods: Day 1:
A 96 well TC (tissue culture treated) plate was coated with 10 μg/mL poly-L-Lysine at 37° C. for 30 min, washed twice with PBS, and air-dried for 5 minutes before cells were added. Hela cells were seeded at 10,000 cells/well and the cells were starved in 100 μL starvation medium containing Axl/Fc for 24 hrs.
The cells were pre-treated with test compounds by adding 100 μL of 2× test compound to the starvation medium on the cells. The cells were incubated at 37° C. for 1 hr before stimulation.
The resulting mix was warmed to 37° C. 50 μL of 5× Axl 1st/2nd of antibody cluster was added to the cells and the cells were incubated at 37° C. for 5 min.
After 5 minutes stimulation, the plate was flicked to remove medium and the plate was tapped onto paper towels. Formaldehyde (4.0% in PBS, 100 μL) was added to fix the cells and the cells were incubated at ambient temperature for 20 min without shaking.
The cells were washed with a plate washer buffer to remove the formaldehyde solution. The plate was flicked to removed excess wash buffer and tapped onto paper towels. Quenching buffer (100 μL) was added to each well and the cells were incubated at ambient temperature for 20 minutes without shaking.
The cells were washed with a plate washer buffer to remove the quenching buffer. Blocking buffer (100 μL) was added and the cells were incubated at ambient temperature for at least an hour with gentle shaking.
The cells were washed with a plate washer buffer and diluted primary antibody (50 μL) was added to each well (blocking buffer was added to the negative control wells instead). The plates were incubated overnight at 4° C. with gentle shaking.
The wash buffer was removed, diluted secondary antibody (100 μL) was added, and the cells were incubated at ambient temperature for 1 hour with gentle shaking. During the incubation, the chemiluminescent reagent was brought to ambient temperature.
The secondary antibody was removed by washing the cells 1× with wash buffer, 1× with PBS by plate washer. The PBS was removed from the plate and the chemiluminescent reagent (80 μL: 40 μL A and 40 μL B) was added to each well at ambient temperature.
The resulting chemiluminescence was read with a Luminomitor within 10 minutes to minimize changes in signal intensity. […] The plate was tapped onto paper towels to remove excess liquid from wells and air-dried at ambient temperature for 5 minutes.
Crystal Violet working solution (60 μL) was added to each well and the cells were incubated at ambient temperature for 30 min. The crystal violet solution was removed, and the wells were rinsed with PBS, then washed 3× with PBS (200 μL) for 5 minutes each.
5% SDS solution (70 μL) was added to each well and the cells were incubated on a shaker for 30 min at ambient temperature.
This relative cell number was then used to normalize each luminescence reading. […]
`Nc1nc(Nc2ccc(OCCN3CCCCC3)cc2)nn1-c1ccccc1` [Compound 1, 1-phneyl-N^3-(4-(2-(piperidin-1-yl)ethoxy)phenyl)-1H-1,2,4-triazole-3,5-diamine]: the concentration for half-maximal inhibition (IC50) (usually the concentration needed to halve the response being measured) was more than 20 µM. Same read-out and setting: the same measure for `Nc1nc(Nc2ccc(OCCN3CCCC3)c(Cl)c2)nn1-c1ccccn1` [Compound 4, N^3-(3-chloro-4-(2-(pyrrolidin-1-yl)ethoxy)phenyl)-1-(pyridin-2-yl)-1H-1,2,4-triazole-3,5-diamine]: less than 1 µM; for `CNc1nc(Nc2ccc(OCCN3CCCC3)cc2)nn1-c1ccccn1` [Compound 6, N^5-methyl-1-(pyridin-2-yl)-N^3-(4-(2-(pyrrolidin-1-yl)ethoxy)phenyl)-1H-1,2,4-triazole-3,5-diamine]: more than 20 µM. Molecule `Nc1nc(Nc2ccc(OCCN3CCCC3)cc2)nn1-c1ccc(S(N)(=O)=O)cc1` [Compound 8, 4-(5-amino-3-(4-(2-(pyrrolidin-1-yl)ethoxy)phenylamino)-1H-1,2,4-triazol-1-yl)benzenesulfonamide] yielded an IC50 of more than 20 µM. The molecule `Nc1nc(Nc2ccc(OCCN3CCCC3)cc2)nn1-c1cnc2ccccc2n1` [Compound 9, N^3-(4-(2-(pyrrolidin-1-yl)ethoxy)phenyl)-1-(quinoxalin-2-yl)-1H-1,2,4-triazole-3,5-diamine] showed an IC50 of less than 1 µM. Still for that read-out and setting: the same measure for `Nc1nc(Nc2ccc(OCCN3CCCCC3)cc2)nn1-c1ccnc(Cl)c1` [Compound 10, 1-(2-chloropyridin-4-yl)-N^3-(4-(2-(piperidin-1-yl)ethoxy)phenyl)-1H-1,2,4-triazole-3,5-diamine]: more than 20 µM; for `Nc1nc(Nc2ccc(OCCN3CCCC3)cc2)nn1-c1nc2ccccc2s1` [Compound 11, 1-(benzo[d]thiazol-2-yl)-N^3-(4-(2-(pyrrolidin-1-yl)ethoxy)phenyl)-1H-1,2,4-triazole-3,5-diamine]: more than 20 µM; for `Nc1nc(Nc2ccc(OCCN3CCCC3)cc2)nn1-c1cnccn1` [Compound 13, 1-(pyrazin-2-yl)-N^3-(4-(2-(pyrrolidin-1-yl)ethoxy)phenyl)-1H-1,2,4-triazole-3,5-diamine]: 1 to 10 µM. As to `Cn1c(-n2nc(Nc3ccc(OCCN4CCCC4)cc3)nc2N)nc2ccccc21` [Compound 14, 1-(1-methyl-1H-benzo[d]imidazol-2-yl)-N^3-(4-(2-(pyrrolidin-1-yl)ethoxy)phenyl)-1H-1,2,4-triazole-3,5-diamine], the 50% inhibitory concentration (IC50) was more than 20 µM. The same measure, in the same setting: the same measure for `Nc1nc(Nc2ccc(OCCN3CCCCC3)cc2)nn1-c1ccnc(N2CCOCC2)c1` [Compound 15, 1-(2-morpholinopyridin-4-yl)-N^3-(4-(2-(piperidin-1-yl)ethoxy)phenyl)-1H-1,2,4-triazole-3,5-diamine]: more than 20 µM. Molecule `Nc1nc(Nc2ccc(OCCN3CCCC3)cc2)nn1-c1cccc(Cl)n1` [Compound 16, 1-(6-chloropyridin-2-yl)-N^3-(4-(2-(pyrrolidin-1-yl)ethoxy)phenyl)-1H-1,2,4-triazole-3,5-diamine] gave an IC50 of 1 to 10 µM. In the case of `Nc1nc(Nc2ccc(OCCN3CCCC3)cc2)nn1-c1ccc(Cl)cn1` [Compound 17, 1-(5-chloropyridin-2-yl)-N^3-(4-(2-(pyrrolidin-1-yl)ethoxy)phenyl)-1H-1,2,4-triazole-3,5-diamine], the IC50 is 1 to 10 µM.

Consider `Nc1nc(Nc2ccc(OCCN3CCCC3)cc2)nn1-c1ncccc1Cl` [Compound 18, 1-(3-chloropyridin-2-yl)-N^3-(4-(2-(pyrrolidin-1-yl)ethoxy)phenyl)-1H-1,2,4-triazole-3,5-diamine], for which the IC50 is more than 20 µM.

`Nc1nc(Nc2ccc(OCCN3CCCCC3)cc2)nn1-c1cccc(Cl)n1` [Compound 19, 1-(6-chloropyridin-2-yl)-N^3-(4-(2-(piperidin-1-yl)ethoxy)phenyl)-1H-1,2,4-triazole-3,5-diamine] showed an IC50 of less than 1 µM. As for `Nc1nc(Nc2ccc(OCCN3CCCCC3)cc2)nn1-c1cccc(N2CCOCC2)n1` [Compound 20, 1-(6-morpholinopyridin-2-yl)-N^3-(4-(2-(piperidin-1-yl)ethoxy)phenyl)-1H-1,2,4-triazole-3,5-diamine], the IC50 lay in the range of 10 to 20 µM.

The molecule `CC1CCCN1CCOc1ccc(Nc2nc(N)n(-c3cnc4ccccc4n3)n2)cc1` (centres unmarked) [Compound 21, N^3-(4-(2-(2-methylpyrrolidin-1-yl)ethoxy)phenyl)-1-(quinoxalin-2-yl)-1H-1,2,4-triazole-3,5-diamine] displayed an IC50 of less than 1 µM. Take `CC1CCCN1CCOc1ccc(Nc2nc(N)n(-c3nc4ccccc4s3)n2)cc1` (centres unmarked) [Compound 22, 1-(benzo[d]thiazol-2-yl)-N^3-(4-(2-(2-methylpyrrolidin-1-yl)ethoxy)phenyl)-1H-1,2,4-triazole-3,5-diamine]: the IC50 was more than 20 µM. The same measure, in the same setting: the same measure for `CC1CCCN1CCOc1ccc(Nc2nc(N)n(-c3nc4ccccc4n3C)n2)cc1` (centres unmarked) [Compound 23, 1-(1-methyl-1H-benzo[d]imidazol-2-yl)-N^3-(4-(2-(2-methylpyrrolidin-1-yl)ethoxy)phenyl)-1H-1,2,4-triazole-3,5-diamine]: more than 20 µM. `CC1CCCN1CCOc1ccc(Nc2nc(N)n(-c3nc4ccccc4[nH]3)n2)cc1` (centres unmarked) [Compound 24, 1-(1H-benzo[d]imidazol-2-yl)-N^3-(4-(2-(2-methylpyrrolidin-1-yl)ethoxy)phenyl)-1H-1,2,4-triazole-3,5-diamine] displayed an IC50 of more than 20 µM.

As to `Nc1nc(Nc2ccc(OCCN3CCCC3)cc2)nn1-c1nncc2ccccc12` [Compound 25, 1-(phthalazin-1-yl)-N^3-(4-(2-(pyrrolidin-1-yl)ethoxy)phenyl)-1H-1,2,4-triazole-3,5-diamine], the IC50 was less than 1 µM.

Consider `Nc1nc(Nc2ccc(OCCN3CCCC3)cc2)nn1-c1cc(C(F)(F)F)ccn1` [Compound 26, N^3-(4-(2-(pyrrolidin-1-yl)ethoxy)phenyl)-1-(4-(trifluoromethyl)pyridin-2-yl)-1H-1,2,4-triazole-3,5-diamine], for which the IC50 was less than 1 µM. The molecule `CC1CCCN1CCOc1ccc(Nc2nc(N)n(-c3ccccc3F)n2)cc1` (centres unmarked) [Compound 27, 1-(2-fluorophenyl)-N^3-(4-(2-(2-methylpyrrolidin-1-yl)ethoxy)phenyl)-1H-1,2,4-triazole-3,5-diamine] gave an IC50 of more than 20 µM.

In turn, `Nc1nc(Nc2ccc(OCCN3CCCCC3)cc2)nn1-c1ccccc1F` [Compound 28, 1-(2-fluorophenyl)-N^3-(4-(2-(piperidin-1-yl)ethoxy)phenyl)-1H-1,2,4-triazole-3,5-diamine] had an IC50 of more than 20 µM. Molecule `Nc1nc(Nc2ccc(OCCN3CCCC3)cc2)nn1-c1ncccc1C(F)(F)F` [Compound 29, N^3-(4-(2-(pyrrolidin-1-yl)ethoxy)phenyl)-1-(3-(trifluoromethyl)pyridin-2-yl)-1H-1,2,4-triazole-3,5-diamine] returned an IC50 of 1 to 10 µM.

As to `COc1cccc(-n2nc(Nc3ccc(OCCN4CCCC4)cc3)nc2N)n1` [Compound 30, 1-(6-methoxypyridin-2-yl)-N^3-(4-(2-(pyrrolidin-1-yl)ethoxy)phenyl)-1H-1,2,4-triazole-3,5-diamine], the IC50 lay within 1 to 10 µM. The molecule `Nc1nc(Nc2ccc(OCCN3CCCC3)cc2)nn1-c1nc2ccccc2[nH]1` [Compound 31, 1-(1H-benzo[d]imidazol-2-yl)-N^3-(4-(2-(pyrrolidin-1-yl)ethoxy)phenyl)-1H-1,2,4-triazole-3,5-diamine] registered an IC50 of more than 20 µM. On the same count and under the same terms, the result for `Nc1nc(Nc2ccc(OCCN3CCCC3)cc2)nn1-c1ccc(Br)cn1` [Compound 32, 1-(5-bromopyridin-2-yl)-N^3-(4-(2-(pyrrolidin-1-yl)ethoxy)phenyl)-1H-1,2,4-triazole-3,5-diamine] reads more than 20 µM. On the same count and under the same terms, the same measure for `COC(=O)C1CCCN1CCOc1ccc(Nc2nc(N)n(-c3cnc4ccccc4n3)n2)cc1` (centres unmarked) [Compound 33, methyl 1-(2-(4-(5-amino-1-(quinoxalin-2-yl)-1H-1,2,4-triazol-3-ylamino)phenoxy)ethyl)-pyrrolidine-2-carboxylate]: 1 to 10 µM.

Still in this assay, the particulars now being: inhibition of Axl activity, phospho-Akt in-cell Western assay.
Take `COc1cc2cnc(-n3nc(Nc4ccc(N5CCN([C@H]6C[C@@H]7CC[C@H]6C7)CC5)cc4)nc3N)nc2cc1OC` (racemic) [Compound 182, 1-(6,7-dimethoxyquinazolin-2-yl)-N^3-(4-(4-((1S,2S,4R)-bicyclo[2.2.1]heptan-2-yl)-piperazin-1-yl)phenyl)-1H-1,2,4-triazole-3,5-diamine]: the half-inhibitory concentration (IC50) was more than 20 µM.
